{"source": "patent US20220023271A1", "about": "“COMPOSITION FOR PREVENTING OR TREATING CELLULAR SENESCENCE-RELATED DISEASES COMPRISING ZOTAROLIMUS AS ACTIVE INGREDIENT” (RESEARCH COOPERATION FOUNDATION OF YEUNGNAM UNIVERSITY, priority 2018, published 2022)", "key": {"[1]": {"tested_on": "renal fibrosis induced by renal ischemia-reperfusion injury", "test": "Renal fibrosis induced by renal ischemia-reperfusion injury in mice", "assay_type": "in vivo, C57BL/6J mice", "experimental": "Animal experiments were performed with the approval of the Animal Experimental Ethics Committee, Yeungnam University College of Medicine (YUMC-AEC2018-024). C57BL/6J 8-week-old male mice were anesthetized by intraperitoneal injection of 2.5% Avertin (0.025 ml/g body weight).\nThe anesthetized mice were placed on a hot plate at 37° C. and the left flank was incised to expose the left kidney. The renal arteriovenous blood vessels were ligated with a microaneurism clamp (Roboz), and whether the blood vessels were blocked or not was confirmed by the color of the kidneys. During the induction of ischemia, the body temperature of the mice was maintained at 36.5-37.5° C. After 35 minutes, the clamp was removed and it was confirmed that reperfusion occurred.\nAs a control, renal arteriovenous vessels were not ligated, and the rest was performed in the same manner as above. From 4 days after ischemia-reperfusion injury, 2.5 μl of 10 mM zotarolimus was diluted in 100 μl of phosphate buffer solution at intervals of 2 days and injected into the abdominal cavity 3 times (Zota group). […] Three mice were used for each group.\nThe left kidney in which ischemia-reperfusion injury was induced, was excised in half and fixed in 10% formalin solution or stored frozen in liquid nitrogen. […]\nTo confirm the degree of lipid peroxidation in tissues, malondialdehyde (MDA) was confirmed by the TBARS method (Garcia Y J, et al., Journal of neuroscience methods. 2005).\nBriefly, 1.4 ml of TBARS solution [0.375% thiobarbituric acid (TBA), 15% trichloroacetic acid (TCA), 0.25 N HCl] was added to the tissue pulverization solution (0.3 mg protein/0.1 ml), and boiled for 15 minutes at 95-100° C. and centrifugation was performed at 4° C. and 12,000 rpm for 10 minutes, and the absorbance of the supernatant was confirmed at 540 nm.\nLipid hydroperoxides were identified by ferrous ion oxidation xylenol orange (FOX) method (Jiang Z Y, et al., Lipids. 1991).\n0.9 ml of FOX reagent (100 μM xylenol orange, 25 mM H2SO4, 0.1 M sorbitol, 2.5 mM ferrous ammonium sulfate] was reacted at room temperature for 30 minutes and then centrifuged to measure the absorbance of the supernatant at 570 nm. […]\nRIPA buffer was added to the tissue and pulverized with WiseTis homogenizer HG-15D (DAIHAN Scientific, Seoul, South Korea). Centrifugation was performed at 12,000 rpm at 4° C. for 20 minutes, and the supernatant was transferred to a new tube.\nThe protein concentration of the supernatant was quantified by the BCA method. After electrophoresis (SDS-PAGE) of 30 μg of protein, Western blot analysis was performed. After electrophoresis, the protein was transferred from the gel to a polyvinylidene fluoride membrane (Pall Corporation).\nThe membrane was treated with a 5% Difco™ skim milk solution (Becton, Dickinson and Company, USA) for 2 hours at room temperature, and the primary antibody was added, followed by reaction at room temperature for 2 hours. As the primary antibody, anti-p53 antibody, anti-p16 antibody, anti-actin antibody, and anti-GAPDH antibody were purchased from Santa Cruz Biotechnology, Inc. Anti-phosphorylated-Rb antibody was obtained from New England Biolabs (Ipswich, Mass., USA), and the anti-SOD2 antibody and anti-catalase antibody were obtained from Bioworld Technology Inc. (Louis Park, Minn., USA), anti-4-HNE antibody, anti-α-smooth muscle actin antibody, and anti-type I collagen antibody were purchased from Abcam (Cambridge, UK).\nThe membrane treated with the primary antibody was washed three times for 15 minutes each with TBST (20 mM Tris-HCl (pH 8.0), 137 mM NaCl, 0.1% Tween 20), and reacted for 60 minutes by treatment with the secondary antibody.\nAfter washing for at least 60 minutes with TBST, protein expression was confirmed using an ECL detection kit (Elpis Biotech, Daejeon, South Korea).\nThe tissue fixed in 10% formalin solution was embedded with paraffin and cut into 4 μm to prepare a tissue sample. […]"}, "[2]": {"tested_on": "peritoneal fibrosis induced by CHG", "test": "Peritoneal fibrosis induced by chlorhexidine gluconate (CHG) in mice", "assay_type": "in vivo, C57BL/6J mice", "settings": "i.p. at 2-day intervals from 9th day; vs DMSO group", "experimental": "Animal experiments were conducted with the approval of the Animal Experimental Ethics Committee of Yeungnam University College of Medicine (YUMC-AEC2018-033). Peritoneal fibrosis mice experiments were performed using a model of peritoneal fibrosis induced by chlorhexidine gluconate (CHG) (Yoshio Y et al., Kidney international. 2004).\nFrom the 9th day, 2.5 μl of 10 mM zotarolimus (Zota group) or 2.5 μl of DMSO (DMSO group) was diluted in 100 μl phosphate buffer solution and intraperitoneally injected at intervals of 2 days.\nAs a negative control (NT group), 100 μl of a 15% ethanol phosphate buffer solution was injected intraperitoneally instead of a 0.1% CHG solution. On the 20th day, the mice were sacrificed, the peritoneal tissue was excised, and the tissue was fixed in 4% paraformaldehyde solution.\nThe tissue fixed in 10% formalin solution was embedded with paraffin and cut into 4 μm to prepare a tissue sample. After removing paraffin from the tissue sample, hematoxylin-eosin staining, trichrome staining, and PAS staining were performed.\nThe degree of fibrosis was measured by analyzing the degree of collagen staining using the i-Solution™ software program (IMT Inc., Canada) after trichrome staining and the degree of cell senescence in tissue samples was investigated by staining lipofuscin with Sudan black B (Viegas M S, et al., European journal of histochemistry: EJH. 2007). […]"}, "[3]": {"settings": "i.p. 3 times from day 4, vs PBS group"}}}
{"compound": "CO[C@H]1C[C@@H]2CC[C@@H](C)[C@@](O)(O2)C(=O)C(=O)N2CCCC[C@H]2C(=O)O[C@H]([C@H](C)C[C@@H]2CC[C@H](n3cnnn3)[C@H](OC)C2)CC(=O)[C@H](C)/C=C(\\C)[C@@H](O)[C@@H](OC)C(=O)[C@H](C)C[C@H](C)/C=C/C=C/C=C/1C", "note": "[zotarolimus]", "values": [{"measurement": "weight gain", "setting": "[1]; body weight before injury vs 11th day, i.p. 3 times at 2-day intervals, vs Sham group", "result": "significantly reduced compared to that of the Sham group"}, {"measurement": "plasma BUN", "setting": "[1]; [3]", "result": "decreased"}, {"measurement": "plasma creatinine", "setting": "[1]; [3]", "result": "decreased"}, {"measurement": "expression of SOD2", "setting": "[1]; kidney tissue", "result": "increased"}, {"measurement": "expression of catalase", "setting": "[1]; kidney tissue", "result": "increased"}, {"measurement": "superoxide", "setting": "[1]; kidney tissue", "result": "significantly reduced"}, {"measurement": "damage to the kidney tubules", "setting": "[1]; kidney tissue specimen, vs PBS group", "result": "significantly reduced"}, {"measurement": "degree of lipid oxidation (lipid hydroperoxides and MDA)", "setting": "[1]; kidney tissue, vs PBS group", "result": "significantly reduced"}, {"measurement": "degree of tissue fibrosis by trichrome staining", "setting": "[1]; kidney tissue, vs PBS group", "result": "significantly reduced"}, {"measurement": "expression level of 4-HNE (Western blot)", "setting": "[1]; kidney tissue, vs PBS group", "result": "significantly reduced"}, {"measurement": "expression level of p16 (Western blot)", "setting": "[1]; kidney tissue, vs PBS group", "result": "significantly reduced"}, {"measurement": "expression of p53 (Western blot)", "setting": "[1]; kidney tissue, vs PBS group", "result": "significantly reduced"}, {"measurement": "expression of pRb (Western blot)", "setting": "[1]; kidney tissue, vs PBS group", "result": "significantly reduced"}, {"measurement": "expression of type 1 collagen (COL1) (Western blot)", "setting": "[1]; kidney tissue, vs PBS group", "result": "significantly reduced"}, {"measurement": "expression of α-SMA (Western blot)", "setting": "[1]; kidney tissue, vs PBS group", "result": "significantly reduced"}, {"measurement": "lipofuscin staining intensity (Sudan Black B)", "setting": "[1]; kidney tissue, vs PBS group", "result": "significantly reduced"}, {"measurement": "degree of fibrosis (peritoneal)", "setting": "[2]", "result": "decreased"}, {"measurement": "thickness of the peritoneal mesothelial cell layer", "setting": "[2]", "result": "significantly reduced"}]}
